Results on 1 compound are retold here after patent US12152030B2 (NOVOSTAR PHARMACEUTICALS, LTD., priority 2019, dated 2024).

Counter-ions that a name gives are not always drawn.

For one series, the system named is Phosphorylated eIF4E. Kind of series: Intracellular peIF4E signaling assay. Conditions: 2 h; two hours incubation at 37° C.; read-out: peIF4E signaling cell assay IC50. The class given is cell-based. As to the method:
Phosphorylated eIF4E was determined using CisBio peIF4E assay kit (CisBio, catalog number 64EF4PEG). The cells were plated in a 96-well cell culture plate in a volume of 90 μL, and the number of cells per well was 5*10^4. The compounds (10×) were subjected to 3-fold serial dilution, added to the cell plate in a volume of 10 μL with the final DMSO concentration being 1%, and incubated at 37° C. for two hours. The cell plate was centrifuged at 300 g for 5 minutes, and the cell supernatant was carefully removed. The cell plate was immediately added with 50 μL of cell lysis buffer […] and incubated at 25° C. with shaking for at least 30 minutes. After homogenization by pipetting, 16 μL of cell lysate was transferred from the 96-well cell culture plate to a 384-well small-volume microwell plate. According to the kit instruction, an antibody mixture solution was prepared with a detection buffer, and was added in a volume of 4 μL to the 384-well small-volume microwell plate containing the cell lysate. The plate was covered with a plate sealer, incubated overnight at 25° C., and was read for fluorescence emission at two different wavelengths (665 nm and 615 nm) on the EnVision microplate reader counter. The emission ratio was imported into a GraphPadPrism software to fit the compound concentration (IC50) required for 50% inhibition of enzyme activity.
In this respect, IC50 values which are less than 0.05 μM were marked as “+++”, which are from 0.05 to 1.0 μM were marked as “++”, and which are greater than 1.0 and up to 100 μM were marked as “+”, and NA meant “not detected”.

A further series concerns the target MNK2 (Homo sapiens, UniProt Q9HBH9). Kind of series: KinomeScan, MNK2. The class given is binding. An excerpt: (§1) KinomeScan was used to determine the kinase selectivity of compound 2.
Series [1] is described as follows: Pharmacokinetic study in rats. The class given is in vivo. To be noted: male, SD, plasma, rat. The protocol: In the examples, rat pharmacokinetic tests were performed for compounds 2 and 26 to illustrate their pharmacokinetic properties in rats.
Formulation of Liquors of Compound 2: […]
Experimental Method for Pharmacokinetic Study in Rats
(§2) Six SD rats, male, weighing 180-220 g, fasting for 12 hours, were randomly divided into 2 groups, 3 in each group. The animals in group A were intragastrically administrated with the compound liquor at a dose of 10 mg/kg; the animals in group B were intravenously administrated with the compound liquor via tails at a dose of 3 mg/kg. Blank blood was harvested before administration; about 100 μL of venous blood was harvested at different time points after administration, placed in a test tube added with heparin and centrifuged, and about 50 μL of blood plasma was collected and stored at −20° C. for testing.
Formulation of Liquors of Compound 26: […]
Formulation of solution for intravenous administration: compound 26 was dissolved in a solution of 5% DMSO+10% Solutol HS15+85% (20% HP-(3-CD physiological saline).
Formulation of suspension for intragastric administration: compound 26 was dissolved in a solution of 5% DMSO+10% Solutol HS15+85% (20% HP-(3-CD physiological saline).
Administration dosage of compound 26: 1 mg/kg for intravenous injection, 3 mg/kg for intragastric administration.
as §2, with “of 3” for “of 10”, “of 1” for “of 3”

For the next series, the target named is T1, GAK (Homo sapiens, UniProt O14976).
T1 sequence (O14976 1-1311): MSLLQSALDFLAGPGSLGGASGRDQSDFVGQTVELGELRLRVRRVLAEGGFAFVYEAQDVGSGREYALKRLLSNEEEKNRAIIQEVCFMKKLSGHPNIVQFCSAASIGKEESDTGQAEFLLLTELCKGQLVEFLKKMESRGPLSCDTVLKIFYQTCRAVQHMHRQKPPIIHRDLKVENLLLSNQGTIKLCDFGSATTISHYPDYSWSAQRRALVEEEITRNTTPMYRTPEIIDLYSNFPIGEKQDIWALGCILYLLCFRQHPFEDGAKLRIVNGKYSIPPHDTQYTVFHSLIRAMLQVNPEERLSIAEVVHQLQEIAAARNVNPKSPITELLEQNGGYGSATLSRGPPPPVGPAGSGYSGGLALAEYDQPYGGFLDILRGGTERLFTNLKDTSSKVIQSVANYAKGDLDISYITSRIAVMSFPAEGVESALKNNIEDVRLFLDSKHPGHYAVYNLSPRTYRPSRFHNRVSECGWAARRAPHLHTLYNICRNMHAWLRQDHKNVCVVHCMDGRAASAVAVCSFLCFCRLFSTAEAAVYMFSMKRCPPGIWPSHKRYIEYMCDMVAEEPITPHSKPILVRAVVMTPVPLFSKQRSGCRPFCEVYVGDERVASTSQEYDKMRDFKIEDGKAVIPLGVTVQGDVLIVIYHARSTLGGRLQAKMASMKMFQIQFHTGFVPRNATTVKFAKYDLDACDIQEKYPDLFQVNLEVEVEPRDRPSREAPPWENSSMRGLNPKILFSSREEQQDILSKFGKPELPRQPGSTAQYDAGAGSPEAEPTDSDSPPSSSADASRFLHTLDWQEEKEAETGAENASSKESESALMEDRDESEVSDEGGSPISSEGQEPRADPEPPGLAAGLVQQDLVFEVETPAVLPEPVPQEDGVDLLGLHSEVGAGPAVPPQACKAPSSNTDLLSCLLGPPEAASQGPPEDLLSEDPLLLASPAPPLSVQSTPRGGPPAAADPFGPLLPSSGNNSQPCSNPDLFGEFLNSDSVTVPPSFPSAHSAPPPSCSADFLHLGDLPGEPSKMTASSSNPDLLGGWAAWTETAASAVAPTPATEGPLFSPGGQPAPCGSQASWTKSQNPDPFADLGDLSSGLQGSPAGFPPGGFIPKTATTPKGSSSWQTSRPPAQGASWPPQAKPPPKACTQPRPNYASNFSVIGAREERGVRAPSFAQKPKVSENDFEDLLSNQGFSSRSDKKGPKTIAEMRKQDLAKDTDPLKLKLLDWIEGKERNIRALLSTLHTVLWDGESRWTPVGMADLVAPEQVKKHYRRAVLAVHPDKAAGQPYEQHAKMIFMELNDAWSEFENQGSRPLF
Kind of series: KinomeScan, GAK. The class given is binding.
Description: as §1

Chain of MNK2 (Q9HBH9 whole entry): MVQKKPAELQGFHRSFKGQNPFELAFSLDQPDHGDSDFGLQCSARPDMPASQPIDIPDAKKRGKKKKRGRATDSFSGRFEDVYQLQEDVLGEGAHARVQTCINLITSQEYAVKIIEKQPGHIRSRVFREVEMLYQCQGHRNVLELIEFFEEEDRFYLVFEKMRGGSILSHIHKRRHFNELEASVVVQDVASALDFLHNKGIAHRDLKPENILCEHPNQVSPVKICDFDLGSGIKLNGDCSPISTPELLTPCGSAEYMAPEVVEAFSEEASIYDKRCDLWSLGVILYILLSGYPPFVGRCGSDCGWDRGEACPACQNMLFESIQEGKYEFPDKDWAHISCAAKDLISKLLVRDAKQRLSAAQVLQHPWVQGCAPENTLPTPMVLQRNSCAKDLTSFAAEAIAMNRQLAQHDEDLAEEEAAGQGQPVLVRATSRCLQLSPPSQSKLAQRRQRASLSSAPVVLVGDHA

In the case of `Cc1c2c(c(=O)n3c1C(=O)NC31CCCCC1)Nc1cc(N)ncc1C2` [Compound 2, 8′-amino-12′-methyl-6′,11′-dihydro-2′H-spiro[cyclohexane-1,3′-imidazole[1′,5′:1,6]pyrido[3,4-B][1,6]naphthyridine]-1′,5′-dione hydrochloride], in the series with Phosphorylated eIF4E, the IC50 was < 50 nM. For the same compound, the inhibition at 1 µM against MNK2 worked out at 99.5%. In series [1] (iv, 3 mg/kg), the AUC(0-inf) is 471 ng·h/mL, the AUC(0-t) stood at 456 ng·h/mL, the clearance was 110 mL/min/kg and the half-life is 1.58 h. For the same compound, the Vd in series [1] (iv, i.v., 3 mg/kg, read-out: Vz) is 12.3 L/kg. In series [1] (oral, p.o. 10 mg/kg vs i.v. 3 mg/kg), this compound yielded a bioavailability of 38.8%. Moreover, in series [1] (po, 10 mg/kg), the AUC(0-inf) was found to be 624 ng·h/mL, the AUC(0-t) turned out to be 584 ng·h/mL, the concentration peaked (Cmax) at 130 ng/mL and the Tmax is 2.17 h. In series [1] (po, 10 mg/kg), this compound had a half-life of 5.07 h. For the same compound, on GAK, the inhibition at 1 µM came to 97.8%. Further, the Kd at GAK (dose response analysis, read-out: Kd of interaction with GAK) was 50 nM.

By IC50 is commonly meant the concentration needed to halve the response being measured. By inhibition is commonly meant how much of the control response was suppressed. Low readings indicate a response near the control, high ones a response far below the control. The term AUC(0-inf) denotes the area under the concentration-time curve extrapolated to infinity. A lower AUC(0-inf) goes with low exposure. For orientation: AUC(0-t) means exposure summed from dosing to a finite time, without extrapolation to infinity. A lower AUC(0-t) goes with less exposure. In general, clearance refers to the volume of plasma or blood freed of the substance per unit of time. The half-life is how long it takes for the measured level to halve. A high value points to slow decline. As a reminder, the bioavailability is dose-corrected exposure relative to a reference, in per cent. High values mean good availability, low ones poor availability. For orientation: Cmax means the highest concentration seen after dosing. The term Tmax denotes the time at which the peak concentration occurs. Broadly, the Kd is the concentration at which binding is half-saturated.
